Patent US6495550B2, “Pyridine-substituted benzanilides as potassium ion channel openers” (ICAgen, Inc., priority 1999, dated 2002)

Q: Which melting point does the source give for `O=C(Nc1ccc(Cl)nc1)c1ccc(-c2ccccc2)cc1` [Compound 6, Biphenyl-4-carboxylic acid (6-chloro-pyridin-3-yl)-amide] here?
A: The melting point was 227 to 229 °C.

Q: For `O=C(Nc1ccc(Cl)nc1)c1cccc(F)c1` [Compound 9, N-(6-Chloro-pyridin-3-yl)-3-fluoro-benzamide], which melting point is on record?
A: The melting point was 160 °C.

Q: For `CN(C)c1ccc(C(=O)Nc2ccc(Cl)nc2)cc1F` [Compound 34, N-(6-Chloro-pyridin-3-yl)-4-dimethylamino-3-fluoro-benzamide], which melting point is on record?
A: The melting point was 170 to 171 °C.

Q: With `O=C(Nc1ccc(Cl)nc1)c1ccc(N2CCOCC2)c(F)c1` [Compound 31, N-(6-Chloro-pyridin-3-yl)-3-fluoro-4-morpholin-4-yl-benzamide] as the compound, how does the melting point read?
A: Its melting point is 228 to 229 °C.

Q: Which melting point does the source give for `O=C(Nc1ccc(Cl)nc1)c1ccc(C(F)(F)F)c(F)c1` [Compound 12, N-(6-Chloro-pyridin-3-yl)-3-fluoro-4-trifluoromethyl-benzamide] here?
A: Its melting point is 182 °C.

Q: With `O=C(Nc1ccc(Cl)nc1)c1cccc(C(F)(F)F)c1` [Compound 3, N-(6-Chloro-pyridin-3-yl)-3-trifluoromethyl-benzamide] as the compound, how does the melting point read?
A: The melting point was 139 to 140 °C.

Q: With `O=C(Nc1ccc(Cl)nc1)c1ccc(Cl)o1` [Compound 21, 5-Chloro-furan-2-carboxylic acid (6-chloro-pyridin-3-yl)-amide] as the compound, how does the melting point read?
A: The melting point was 143 to 144 °C.

Q: Which melting point does the source give for `O=C(Nc1ccc(Cl)nc1)c1ccc([N+](=O)[O-])cc1` [Compound 42, N-(6-Chloro-pyridin-3-yl)-4-nitro-benzamide] here?
A: The melting point was 193 °C.

Q: For `O=C(Nc1ccc(Cl)nc1)c1ccc(Cl)c(Cl)c1` [Compound 2, 3,4-Dichloro-N-(6-chloro-pyridin-3-yl)-benzamide], which melting point is on record?
A: Its melting point is 188 to 189 °C.

Q: Which melting point does the source give for `O=C(Nc1ccc(Cl)nc1)c1ccc(Cl)s1` [Compound 20, 5-Chloro-thiophene-2-carboxylic acid (6-chloro-pyridin-3-yl)-amide] here?
A: Its melting point is 215 to 216 °C.

Q: Which melting point does the source give for `O=C(Nc1ccc(Cl)nc1)c1cccc(Cl)c1` [Compound 5, 3-Chloro-N-(6-chloro-pyridin-3-yl)-benzamide] here?
A: The melting point was 153 to 154 °C.

Q: For `Nc1ccc(C(=O)Nc2ccc(Cl)nc2)cc1F` [Compound 41, 4-Amino-N-(6-chloro-pyridin-3-yl)-3-fluoro-benzamide], which melting point is on record?
A: The melting point was 193 °C.

Q: Which melting point does the source give for `O=C(Nc1ccc(F)nc1)c1cnc(F)c(F)c1` [Compound 15, 5,6-Difluoro-N-(6-fluoro-pyridin-3-yl)-nicotinamide] here?
A: The melting point was 135 to 137 °C.

Q: For `O=C(Nc1ccc(Cl)nc1)c1cc2cc(Cl)ccc2o1` [Compound 19, 5-Chloro-benzofuran-2-carboxylic acid (6-chloro-pyridin-3-yl)-amide], which melting point is on record?
A: Its melting point is 222 to 223 °C.

Q: Which melting point does the source give for `O=C(Nc1ccc(Cl)nc1)c1cc2cc(Cl)ccc2[nH]1` [Compound 18, 5-Chloro-1 H-indole-2-carboxylic acid (6-chloro-pyridin-3-yl)-amide] here?
A: The melting point was 296 °C.

Q: With `O=C(Nc1ccc(Cl)nc1)c1ccccc1` [Compound 25, N-(6-Chloro-pyridin-3-yl)-benzamide] as the compound, how does the melting point read?
A: The melting point was 163 to 164 °C.

Q: With `O=C(Nc1ccc(Cl)nc1)c1cc2cc(F)ccc2[nH]1` [Compound 17, 5-Fluoro-1 H-indole-2-carboxylic acid (6-chloro-pyridin-3-yl)-amide] as the compound, how does the melting point read?
A: Its melting point is 290 °C.

Q: For `CCc1ccc2[nH]c(C(=O)Nc3ccc(Cl)nc3)cc2c1` [Compound 24, 5-Ethyl-1 H-indole-2-carboxylic acid (6-chloro-pyridin-3-yl)-amide], which melting point is on record?
A: Its melting point is 270 °C.

Q: With `O=C(Nc1ccc(Cl)nc1)c1cc2ccccc2[nH]1` [Compound 26, 1H-Indole-2-carboxylic acid (6-chloro-pyridin-3-yl)-amide] as the compound, how does the melting point read?
A: Its melting point is 260 to 263 °C.

Q: With `Cc1cc(C(=O)Nc2ccc(Cl)nc2)ccc1[N+](=O)[O-]` [Compound 16, N-(6-Chloro-pyridin-3-yl)-3-methyl-4-nitro-benzamide] as the compound, how does the melting point read?
A: Its melting point is 192 to 193 °C.

Q: Which melting point does the source give for `O=C(Nc1ccc(Cl)nc1)c1ccc([N+](=O)[O-])c(F)c1` [Compound 37, N-(6-Chloro-pyridin-3-yl)-3-fluoro-4-nitro-benzamide] here?
A: The melting point was 205 °C.

Q: For `Cc1c(C(=O)Nc2ccc(Cl)nc2)[nH]c2ccccc12` [Compound 23, 3-Methyl-1 H-indole-2-carboxylic acid (6-chloro-pyridin-3-yl)-amide], which melting point is on record?
A: The melting point was 184 to 185 °C.

Q: With `O=C(Nc1ccc(Cl)nc1)c1ccc(Cl)cc1` [Compound 14, N-(6-Chloro-pyridin-3-yl)-4-chloro-benzamide] as the compound, how does the melting point read?
A: Its melting point is 197 to 199 °C.

Q: With `O=C(Nc1ccc(Cl)nc1)c1ccc(NCc2ccccn2)c(F)c1` [Compound 33, N-(6-Chloro-pyridin-3-yl)-3-fluoro-4-[(pyridin-2-ylmethyl)-amino]-benzamide] as the compound, how does the melting point read?
A: Its melting point is 210 to 211 °C.

Q: Which melting point does the source give for `O=C(Nc1ccc(Cl)nc1)c1ccc(Cl)nc1` [Compound 7, 6-Chloro-N-(6-chloro-pyridin-3-yl)-nicotinamide] here?
A: The melting point was 228 °C.

Q: With `O=C(Nc1ccc(Cl)nc1)c1ccc(NC(=O)c2ccccn2)cc1` [Compound 35, Pyridine-2-carboxylic acid [4-(6-chloro-pyridin-3-ylcarbamoyl)-phenyl]-amide] as the compound, how does the melting point read?
A: The melting point was 258 to 260 °C.

Q: Which melting point does the source give for `O=C(Nc1ccc(Cl)nc1)c1cccc(C(F)(F)F)c1` [Compound 10, N-(6-Chloro-pyridin-3-yl)-3-(trifluoromethyl)-benzamide] here?
A: The melting point was 169 to 170 °C.
